Measurements published in patent EP3046573B1, “AMYLIN ANALOGUES” (Zealand Pharma A/S, priority 2013, dated 2015).
Numbered stars: 1 amine (or outer) side, 2 acyl side, 3 side chain; on linkers, the order of the positions; unused ones are H or OH. Bridge positions count the residues as written; N and C are the ends. Square brackets hold non-standard residues; d marks the D form. Peptide text beside a SMILES is read from it. * marks the point of attachment. C20 diacid = O=C(O)CCCCCCCCCCCCCCCCCCC(=O)*; γGlu = O=C(O)[C@H](CCC(=O)[*:2])N[*:1]; NMeY = CN[C@@H](Cc1ccc(O)cc1)C(=O)O; NMeI = CC[C@H](C)[C@H](NC)C(=O)O; Sar = CNCC(=O)O

Assays:
[1] = Solubility assessment (turbidity absorbance at 325 nm); type: physicochemical; conditions: stock 2 mg/ml diluted 1:1, ambient temperature (typically 25°C), n=1; for Solubility, Acetate buffer pH 4: 100 mM acetate buffer pH 4.0; for Solubility, Acetate buffer pH 5: 100 mM acetate buffer pH 5.0; for Solubility, Histidine buffer pH 6: 100 mM histidine buffer pH 6.0; for Solubility, Histidine buffer pH 7: 100 mM histidine buffer pH 7.0; for Solubility, Phosphate buffer pH 6: 100 mM phosphate buffer pH 6.0; for Solubility, Phosphate buffer pH 7: 100 mM phosphate buffer pH 7.0; for Solubility, Phosphate buffer pH 7.5: 100 mM phosphate buffer pH7.5
Method in brief: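 Turbidity read as absorbance at 325 nm (also 280 nm), single samples at ambient temperature (typically 25°C); ≤ 0.02 units counts as ≥ 1 mg/ml soluble. Samples made by 1:1 dilution of a 2 mg/ml acidic stock into 100 mM acetate, histidine or phosphate buffers, pH 4.0–7.5.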

[2] = biological target: T1, human calcitonin receptor (hCTR2) (Homo sapiens, UniProt P30988); assay: hCTR2 assay: induction of cAMP (AlphaScreen cAMP Assay kit) in COS7 cells expressing hCTR2; type: cell-based; conditions: cAMP induction in COS7 cells expressing hCTR2; average of a minimum of 3 determinations; read-out: hCTR2 EC50
T1 construct: expressed in transfected cells
T1 sequence (P30988 25-474): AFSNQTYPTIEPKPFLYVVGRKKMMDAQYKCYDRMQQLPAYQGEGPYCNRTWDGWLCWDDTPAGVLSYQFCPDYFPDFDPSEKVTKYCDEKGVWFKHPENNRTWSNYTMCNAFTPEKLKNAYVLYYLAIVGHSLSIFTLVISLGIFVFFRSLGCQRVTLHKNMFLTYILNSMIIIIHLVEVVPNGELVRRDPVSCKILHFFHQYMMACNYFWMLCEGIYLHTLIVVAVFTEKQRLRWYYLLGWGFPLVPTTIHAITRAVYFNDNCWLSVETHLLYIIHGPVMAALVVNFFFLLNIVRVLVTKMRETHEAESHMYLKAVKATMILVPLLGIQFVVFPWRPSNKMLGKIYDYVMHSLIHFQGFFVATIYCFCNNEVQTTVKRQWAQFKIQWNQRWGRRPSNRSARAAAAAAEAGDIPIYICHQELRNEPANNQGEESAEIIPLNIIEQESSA
Method in brief: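 cAMP read-out by AlphaScreen after cell lysis; EC50 and % efficacy vs pramlintide from 4-parameter logistic fitting. Agonist stimulation: hCTR2-COS7 stable cells, 15 min, 37° C, 100 µM IBMX, 0.1% casein, Tyrode/HEPES pH 7.4.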

CC[C@H](C)[C@@H](C(=O)N[C@@H](CC(C)C)C(=O)N[C@@H](CO)C(=O)N[C@@H](CO)C(=O)N[C@H](C(=O)N[C@@H](CC(N)=O)C(=O)N[C@H](C(=O)NCC(=O)N[C@@H](CO)C(=O)N[C@@H](CC(N)=O)C(=O)N[C@H](C(=O)N1CCC[C@H]1C(N)=O)[C@@H](C)O)C(C)C)[C@@H](C)O)N(C)C(=O)CN(C)C(=O)[C@H](Cc1ccccc1)NC(=O)[C@H](CC(N)=O)NC(=O)[C@H](CC(N)=O)NC(=O)[C@H](CO)NC(=O)[C@H](CO)NC(=O)[C@H](Cc1c[nH]cn1)NC(=O)[C@H](CCCNC(=N)N)NC(=O)[C@H](CC(C)C)NC(=O)[C@H](Cc1ccccc1)NC(=O)[C@H](CCC(=O)O)NC(=O)[C@H](C)NC(=O)[C@H](CC(C)C)NC(=O)[C@H](CCCNC(=N)N)NC(=O)[C@H](CCC(N)=O)NC(=O)[C@@H](NC(=O)[C@H](C)NC(=O)[C@@H]1CSSC[C@H](NC(=O)[C@H](CCCNC(=N)N)NC(=O)CC[C@H](NC(=O)CCCCCCCCCCCCCCCCCCC(=O)O)C(=O)O)C(=O)N[C@@H](CC(N)=O)C(=O)N[C@@H]([C@@H](C)O)C(=O)N[C@@H](C)C(=O)N[C@@H]([C@@H](C)O)C(=O)N1)[C@@H](C)O [Compound 22, [19CD]-isoGlu-RC()NTATC()ATQRLAEFLRHSSNNF-Gly(Me)-Ile(Me)-LSSTNVGSNTP-NH2] ({C20 diacid-γGlu}-RCNTATCATQRLAEFLRHSSNNF[Sar][NMeI]LSSTNVGSNTP-NH2; disulfide 2-7)
Solubility, Acetate buffer pH 4 [1]: SS (SS indicates solubility ≥ 1mg/ml) | Solubility, Acetate buffer pH 5 [1]: SS (SS indicates solubility ≥ 1mg/ml) | Solubility, Histidine buffer pH 6 [1]: SS (SS indicates solubility ≥ 1mg/ml) | Solubility, Histidine buffer pH 7 [1]: SS (SS indicates solubility ≥ 1mg/ml) | Solubility, Phosphate buffer pH 6 [1]: SS (SS indicates solubility ≥ 1mg/ml) | Solubility, Phosphate buffer pH 7 [1]: SS (SS indicates solubility ≥ 1mg/ml) | Solubility, Phosphate buffer pH 7.5 [1]: SS (SS indicates solubility ≥ 1mg/ml) | EC50 [2]: 0.31 nM

CC[C@H](C)[C@@H](C(=O)N[C@@H](CC(C)C)C(=O)N[C@@H](CO)C(=O)N[C@@H](CO)C(=O)N[C@H](C(=O)N[C@@H](CC(N)=O)C(=O)N[C@H](C(=O)NCC(=O)N[C@@H](CO)C(=O)N[C@@H](CC(N)=O)C(=O)N[C@H](C(=O)N1CCC[C@H]1C(N)=O)[C@@H](C)O)C(C)C)[C@@H](C)O)N(C)C(=O)CN(C)C(=O)[C@H](Cc1ccccc1)NC(=O)[C@H](CC(N)=O)NC(=O)[C@H](CC(N)=O)NC(=O)[C@H](Cc1c[nH]cn1)NC(=O)[C@H](Cc1c[nH]cn1)NC(=O)[C@H](CC(C)C)NC(=O)[C@H](Cc1ccccc1)NC(=O)[C@H](CCC(=O)O)NC(=O)[C@H](C)NC(=O)[C@H](CC(C)C)NC(=O)[C@H](CCCNC(=N)N)NC(=O)[C@H](CCC(N)=O)NC(=O)[C@@H](NC(=O)[C@H](C)NC(=O)[C@@H]1CSSC[C@H](NC(=O)[C@H](CCCNC(=N)N)NC(=O)CC[C@H](NC(=O)CCCCCCCCCCCCCCCCCCC(=O)O)C(=O)O)C(=O)N[C@@H](CC(N)=O)C(=O)N[C@@H]([C@@H](C)O)C(=O)N[C@@H](C)C(=O)N[C@@H]([C@@H](C)O)C(=O)N1)[C@@H](C)O [Compound 48, [19CD]-isoGlu-RC()NTATC()ATQRLAEFLHHNNF-Gly(Me)-Ile(Me)-LSSTNVGSNTP-NH2] ({C20 diacid-γGlu}-RCNTATCATQRLAEFLHHNNF[Sar][NMeI]LSSTNVGSNTP-NH2; disulfide 2-7)
Solubility, Acetate buffer pH 4 [1]: SS (SS indicates solubility ≥ 1mg/ml) | Solubility, Acetate buffer pH 5 [1]: SS (SS indicates solubility ≥ 1mg/ml) | Solubility, Histidine buffer pH 6 [1]: SS (SS indicates solubility ≥ 1mg/ml) | Solubility, Histidine buffer pH 7 [1]: SS (SS indicates solubility ≥ 1mg/ml) | Solubility, Phosphate buffer pH 6 [1]: SS (SS indicates solubility ≥ 1mg/ml) | Solubility, Phosphate buffer pH 7 [1]: SS (SS indicates solubility ≥ 1mg/ml) | Solubility, Phosphate buffer pH 7.5 [1]: SS (SS indicates solubility ≥ 1mg/ml) | EC50 [2]: 0.12 nM

CC[C@H](C)[C@@H](C(=O)N[C@@H](CC(C)C)C(=O)N[C@@H](CO)C(=O)N[C@@H](CO)C(=O)N[C@H](C(=O)N[C@@H](CC(=O)O)C(=O)N[C@H](C(=O)NCC(=O)N[C@@H](CO)C(=O)N[C@@H](CCC(=O)O)C(=O)N[C@H](C(=O)N1CCC[C@H]1C(N)=O)[C@@H](C)O)C(C)C)[C@@H](C)O)N(C)C(=O)CN(C)C(=O)[C@H](Cc1ccccc1)NC(=O)[C@H](CO)NC(=O)[C@H](CO)NC(=O)[C@H](CO)NC(=O)[C@H](CO)NC(=O)[C@H](CCCNC(=N)N)NC(=O)[C@H](Cc1c[nH]cn1)NC(=O)[C@H](CC(C)C)NC(=O)[C@H](Cc1ccccc1)NC(=O)[C@H](CCC(=O)O)NC(=O)[C@H](C)NC(=O)[C@H](CC(C)C)NC(=O)[C@H](CCCNC(=N)N)NC(=O)[C@H](CCC(N)=O)NC(=O)[C@@H](NC(=O)[C@H](C)NC(=O)[C@@H]1CSSC[C@H](NC(=O)[C@H](CCCNC(=N)N)NC(=O)CC[C@H](NC(=O)CCCCCCCCCCCCCCCCCCC(=O)O)C(=O)O)C(=O)N[C@@H](CC(N)=O)C(=O)N[C@@H]([C@@H](C)O)C(=O)N[C@@H](C)C(=O)N[C@@H]([C@@H](C)O)C(=O)N1)[C@@H](C)O [Compound 75, [19CD]-isoGlu-RC()NTATC()ATQRLAEFLHRSSSSF-Gly(Me)-Ile(Me)-LSSTDVGSETP-NH2] ({C20 diacid-γGlu}-RCNTATCATQRLAEFLHRSSSSF[Sar][NMeI]LSSTDVGSETP-NH2; disulfide 2-7)
Solubility, Acetate buffer pH 4 [1]: SS (SS indicates solubility ≥ 1mg/ml) | Solubility, Acetate buffer pH 5 [1]: II (II indicates solubility ≤ 1 mg/ml) | Solubility, Histidine buffer pH 6 [1]: II (II indicates solubility ≤ 1 mg/ml) | Solubility, Histidine buffer pH 7 [1]: SS (SS indicates solubility ≥ 1mg/ml) | Solubility, Phosphate buffer pH 6 [1]: SS (SS indicates solubility ≥ 1mg/ml) | Solubility, Phosphate buffer pH 7 [1]: SS (SS indicates solubility ≥ 1mg/ml) | Solubility, Phosphate buffer pH 7.5 [1]: SS (SS indicates solubility ≥ 1mg/ml) | EC50 [2]: 0.11 nM

CC[C@H](C)[C@@H](C(=O)N[C@@H](CC(C)C)C(=O)N[C@@H](CO)C(=O)N[C@@H](CO)C(=O)N[C@H](C(=O)N[C@@H](CC(N)=O)C(=O)N[C@H](C(=O)NCC(=O)N[C@@H](CO)C(=O)N[C@@H](CC(N)=O)C(=O)N[C@H](C(=O)N(C)[C@@H](Cc1ccc(O)cc1)C(N)=O)[C@@H](C)O)C(C)C)[C@@H](C)O)N(C)C(=O)CN(C)C(=O)[C@H](Cc1ccccc1)NC(=O)[C@H](CC(N)=O)NC(=O)[C@H](CC(N)=O)NC(=O)[C@H](CO)NC(=O)[C@H](CO)NC(=O)[C@H](Cc1c[nH]cn1)NC(=O)[C@H](Cc1c[nH]cn1)NC(=O)[C@H](CC(C)C)NC(=O)[C@H](Cc1ccccc1)NC(=O)[C@H](CCC(=O)O)NC(=O)[C@H](C)NC(=O)[C@H](CC(C)C)NC(=O)[C@H](CCCNC(=N)N)NC(=O)[C@H](CCC(N)=O)NC(=O)[C@@H](NC(=O)[C@H](C)NC(=O)[C@@H]1CSSC[C@H](NC(=O)[C@H](CCCNC(=N)N)NC(=O)CC[C@H](NC(=O)CCCCCCCCCCCCCCCCCCC(=O)O)C(=O)O)C(=O)N[C@@H](CC(N)=O)C(=O)N[C@@H]([C@@H](C)O)C(=O)N[C@@H](C)C(=O)N[C@@H]([C@@H](C)O)C(=O)N1)[C@@H](C)O [Compound 62, [19CD]-isoGlu-RC()NTATC()ATQRLAEFLHHSSNNF-Gly(Me)-Ile(Me)-LSSTNVGSNT-Tyr(Me)-NH2] ({C20 diacid-γGlu}-RCNTATCATQRLAEFLHHSSNNF[Sar][NMeI]LSSTNVGSNT[NMeY]-NH2; disulfide 2-7)
Solubility, Acetate buffer pH 4 [1]: SS (SS indicates solubility ≥ 1mg/ml) | Solubility, Acetate buffer pH 5 [1]: II (II indicates solubility ≤ 1 mg/ml) | Solubility, Histidine buffer pH 6 [1]: II (II indicates solubility ≤ 1 mg/ml) | Solubility, Histidine buffer pH 7 [1]: II (II indicates solubility ≤ 1 mg/ml) | Solubility, Phosphate buffer pH 6 [1]: II (II indicates solubility ≤ 1 mg/ml) | Solubility, Phosphate buffer pH 7 [1]: II (II indicates solubility ≤ 1 mg/ml) | Solubility, Phosphate buffer pH 7.5 [1]: II (II indicates solubility ≤ 1 mg/ml) | EC50 [2]: 0.37 nM
